Measured values as given in patent US20090317466A1, “Fixed dose pharmaceutical composition comprising hyroxyurea and didanosine” (priority 2008, published 2009).

Experiment: Stability of hydroxyurea on removal of citric acid from the composition
Type: physicochemical
Conditions: removal of the stabilizer citric acid from the composition
From the text: The commercially available hydroxyurea tablets contain citric acid.

NC(=O)NO [hydroxyurea]
stability of hydroxyurea: not significantly affected
